Key:
[1] = test system: ECFC/ADSC co-culture cell nuclei number; conditions: for IC50: read-out: VEGF_ADSC\ECFC Angio Hoechst NucArea summarized IC50
SW480 = assay: cells; format: cell-based; conditions: for Basal_Viability ATP SW480 IC50/EC50 / IC50: assay number 24; for IC50: read-out: Basal_Viability ATP SW480 summarized IC50
HCT116 = assay: cells; format: cell-based; conditions: basal; for Basal_Viability ATP HCT116 IC50/EC50 / IC50: assay number 25; for IC50: read-out: Basal_Viability ATP HCT116 summarized IC50
Colo320 = assay: cells; format: cell-based; conditions: for Basal_Viability ATP Colo 320 IC50/EC50 / IC50: assay number 27; for IC50: read-out: Basal_Viability ATP Colo 320 summarized IC50
[2] = test system: HCT116 cells treated with a GSK3β inhibitor; assay: cells; format: cell-based; conditions: for GSK3b inh pretreated_Viability ATP HCT116 IC50/EC50 / IC50: assay number 26, GSK3b inhibitor pretreated; for IC50: read-out: GSK3b inh pretreated_Viability ATP HCT116 summarized IC50
[3] = test system: endothelial tube formation in co-cultures of ECFCs and ADSCs treated with VEGF; assay: cells; format: cell-based, human; conditions: for IC50: read-out: VEGF_ADSC\ECFC Angio CD31 TubeArea summarized IC50
RKO = assay: cells; format: cell-based; conditions: for Basal_Viability ATP RKO IC50/EC50 / IC50: assay number 29; for IC50: read-out: Basal_Viability ATP RKO summarized IC50
HT-29 = assay: cells; format: cell-based; conditions: for Basal_Viability ATP HT-29 IC50/EC50 / IC50: assay number 28; for IC50: read-out: Basal_Viability ATP HT-29 summarized IC50
DLD-1 = assay: cells; format: cell-based; conditions: for Basal_Viability ATP DLD-1 IC50/EC50 / IC50: assay number 23; for IC50: read-out: Basal_Viability ATP DLD-1 summarized IC50
SNU-C1 = assay: cells; format: cell-based; conditions: for Basal_Viability ATP SNU-C1 IC50/EC50 / IC50: assay number 30; for IC50: read-out: Basal_Viability ATP SNU-C1 summarized IC50

COCC(C)N(C(=O)CCl)c1c(C)csc1C (centres unmarked) [NCGC00163935-05]
VEGF_ADSC\ECFC Angio Hoechst NucArea IC50/EC50 [1]: > 10 µM | Basal_Viability ATP SW480 IC50/EC50 (SW480; basal): > 20 µM | Basal_Viability ATP HCT116 IC50/EC50 (HCT116): > 20 µM | Basal_Viability ATP Colo 320 IC50/EC50 (Colo320; basal): > 20 µM | GSK3b inh pretreated_Viability ATP HCT116 IC50/EC50 [2]: > 20 µM | VEGF_ADSC\ECFC Angio CD31 TubeArea IC50/EC50 [3]: > 10 µM | Basal_Viability ATP RKO IC50/EC50 (RKO; basal): > 20 µM | Basal_Viability ATP HT-29 IC50/EC50 (HT-29; basal): > 20 µM | Basal_Viability ATP DLD-1 IC50/EC50 (DLD-1; basal): > 20 µM | Basal_Viability ATP SNU-C1 IC50/EC50 (SNU-C1; basal): > 20 µM

O=C(Nc1ccc(Cl)cc1)Nc1ccc(Cl)c(Cl)c1 [NCGC00164034-05]
IC50 [1]: > 10 µM | IC50 (SW480; basal): 0.897 µM | IC50 (HCT116): 0.228 µM | IC50 (Colo320; basal): 0.362 µM | IC50 [2]: 0.362 µM | IC50 [3]: > 10 µM | IC50 (RKO; basal): 0.288 µM | IC50 (HT-29; basal): 0.383 µM | IC50 (DLD-1; basal): 0.323 µM | IC50 (SNU-C1; basal): 0.335 µM

CCCCC(CC)COC(=O)CC(C(=O)OCC(CC)CCCC)S(=O)(=O)O (centres unmarked) [NCGC00164140-07]
IC50 [1]: > 10 µM | IC50 (SW480; basal): > 20 µM | IC50 (HCT116): > 20 µM | IC50 (Colo320; basal): > 20 µM | IC50 [2]: 16.6 µM | IC50 [3]: > 10 µM | IC50 (RKO; basal): > 20 µM | IC50 (HT-29; basal): > 20 µM | IC50 (DLD-1; basal): > 20 µM | IC50 (SNU-C1; basal): > 20 µM

CO[C@H]1O[C@@H]2O[C@@]3(C)CC[C@H]4[C@H](C)CC[C@@H]([C@H]1C)[C@@]24OO3 [NCGC00164591-04]
VEGF_ADSC\ECFC Angio Hoechst NucArea IC50/EC50 [1]: > 10 µM | Basal_Viability ATP SW480 IC50/EC50 (SW480; basal): > 20 µM | Basal_Viability ATP HCT116 IC50/EC50 (HCT116): > 20 µM | Basal_Viability ATP Colo 320 IC50/EC50 (Colo320; basal): > 20 µM | GSK3b inh pretreated_Viability ATP HCT116 IC50/EC50 [2]: > 20 µM | VEGF_ADSC\ECFC Angio CD31 TubeArea IC50/EC50 [3]: > 10 µM | Basal_Viability ATP RKO IC50/EC50 (RKO; basal): > 20 µM | Basal_Viability ATP HT-29 IC50/EC50 (HT-29; basal): > 20 µM | Basal_Viability ATP DLD-1 IC50/EC50 (DLD-1; basal): > 20 µM | Basal_Viability ATP SNU-C1 IC50/EC50 (SNU-C1; basal): > 20 µM

Cl.NC1=NCC2c3ccccc3Cc3ccccc3N12 (centres unmarked) [NCGC00165791-04]
VEGF_ADSC\ECFC Angio Hoechst NucArea IC50/EC50 [1]: > 10 µM | Basal_Viability ATP SW480 IC50/EC50 (SW480; basal): > 20 µM | Basal_Viability ATP HCT116 IC50/EC50 (HCT116): > 20 µM | Basal_Viability ATP Colo 320 IC50/EC50 (Colo320; basal): > 20 µM | GSK3b inh pretreated_Viability ATP HCT116 IC50/EC50 [2]: > 20 µM | VEGF_ADSC\ECFC Angio CD31 TubeArea IC50/EC50 [3]: > 10 µM | Basal_Viability ATP RKO IC50/EC50 (RKO; basal): > 20 µM | Basal_Viability ATP HT-29 IC50/EC50 (HT-29; basal): > 20 µM | Basal_Viability ATP DLD-1 IC50/EC50 (DLD-1; basal): > 20 µM | Basal_Viability ATP SNU-C1 IC50/EC50 (SNU-C1; basal): > 20 µM

CCN(CC)C(=O)c1cccnc1 [NCGC00166026-02]
VEGF_ADSC\ECFC Angio Hoechst NucArea IC50/EC50 [1]: > 10 µM | Basal_Viability ATP SW480 IC50/EC50 (SW480; basal): > 20 µM | Basal_Viability ATP HCT116 IC50/EC50 (HCT116): > 20 µM | Basal_Viability ATP Colo 320 IC50/EC50 (Colo320; basal): > 20 µM | GSK3b inh pretreated_Viability ATP HCT116 IC50/EC50 [2]: > 20 µM | VEGF_ADSC\ECFC Angio CD31 TubeArea IC50/EC50 [3]: > 10 µM | Basal_Viability ATP RKO IC50/EC50 (RKO; basal): > 20 µM | Basal_Viability ATP HT-29 IC50/EC50 (HT-29; basal): > 20 µM | Basal_Viability ATP DLD-1 IC50/EC50 (DLD-1; basal): > 20 µM | Basal_Viability ATP SNU-C1 IC50/EC50 (SNU-C1; basal): > 20 µM

CCCCCCCCCCCCCCCCCC[N+](C)(C)CCC[Si](OC)(OC)OC.[Cl-] [NCGC00166112-02]
VEGF_ADSC\ECFC Angio Hoechst NucArea IC50/EC50 [1]: > 10 µM | Basal_Viability ATP SW480 IC50/EC50 (SW480; concentration response): > 20 µM | Basal_Viability ATP HCT116 IC50/EC50 (HCT116; concentration response): > 20 µM | Basal_Viability ATP Colo 320 IC50/EC50 (Colo320; concentration response): > 20 µM | GSK3b inh pretreated_Viability ATP HCT116 IC50/EC50 ([2]; concentration response): > 20 µM | VEGF_ADSC\ECFC Angio CD31 TubeArea IC50/EC50 [3]: > 10 µM | Basal_Viability ATP RKO IC50/EC50 (RKO; concentration response): > 20 µM | Basal_Viability ATP HT-29 IC50/EC50 (HT-29; concentration response): > 20 µM | Basal_Viability ATP DLD-1 IC50/EC50 (DLD-1; concentration response): > 20 µM | Basal_Viability ATP SNU-C1 IC50/EC50 (SNU-C1; concentration response): > 20 µM

ClC1=C(Cl)C2(Cl)C(CBr)CC1(Cl)C2(Cl)Cl (centres unmarked) [NCGC00166203-02]
IC50/EC50, VEGF_ADSC\ECFC Angio Hoechst NucArea (assay number 3) [1]: 9.9697 µM | IC50/EC50, Basal_Viability ATP SW480 (assay number 24) (SW480; basal): > 20 µM | IC50/EC50, Basal_Viability ATP HCT116 (assay number 25) (HCT116): > 20 µM | IC50/EC50, Basal_Viability ATP Colo 320 (assay number 27) (Colo320; basal): > 20 µM | IC50/EC50, GSK3b inh pretreated_Viability ATP HCT116 (assay number 26) ([2]; GSK3b inh pretreated): > 20 µM | IC50/EC50, VEGF_ADSC\ECFC Angio CD31 TubeArea (assay number 2) [3]: > 10 µM | IC50/EC50, Basal_Viability ATP RKO (assay number 29) (RKO; basal): > 20 µM | IC50/EC50, Basal_Viability ATP HT-29 (assay number 28) (HT-29; basal): > 20 µM | IC50/EC50, Basal_Viability ATP DLD-1 (assay number 23) (DLD-1; basal): > 20 µM | IC50/EC50, Basal_Viability ATP SNU-C1 (assay number 30) (SNU-C1; basal): > 20 µM
